# Legend:
# [1] = tested on: human melanocytes; assay: Melanogenesis in cultured primary human melanocytes; type: cell-based
# Experimental: Rapamycin (also called sirolimus) inhibits immune attack by inhibiting the response to interleukin-2 (IL-2) and blocking activation of T- and B-cells. Rapamycin binds to the cytosolic protein FK-binding protein 12 (FKBP12) and inhibits the mammalian target of rapamycin (mTOR) pathway by directly binding the mTOR Complex 1 (mTORC1). […] For example, FIG. 1 depicts a western blot of lysates from HL60 cells, a model system for studying human myeloid cell differentiation, which were treated with rapamycin for 24 hours. […] Additionally, FIG. 2 depicts human melanocytes that were treated with rapamycin (0.01 μM) for 96 hours.
# (§1) In FIG. 5, Primary Human melanocytes were treated with each agent or the combination for 96 h. […] FIG. 7 depicts a Western blot for protein expression of survival signals in primary human melanocytes treated with FGF, stem cell factor (SCF), forskolin and alpha-MSH, as compared to untreated melanocytes. […] Designation of 1 indicates the darkening (repigmentation) of skin surrounding hair follicles.
# [2] = tested on: primary human melanocytes; assay: Proliferation of primary human melanocytes; type: cell-based; settings: 10 ng/mL, 96 h, DMSO as untreated control (FIG. 3)
# Experimental: In some embodiments, the present invention is directed to a composition comprising a cosmeceutically acceptable carrier, rapamycin and growth factors such as fibroblast growth factor (FGF), Stem cell Factor (SCF) or Endothelins. […] In FIG. 3, treated Primary Human melanocytes were treated with bFGF (10 ng/mL) with DMSO as untreated control for 96 h. Growth Factors such as basic Fibroblast Growth Factor, Stem Cell Factor and Endothelins are important regulators of melanocyte differentiation, migration, proliferation and survival. Growth factors can therefore protect cells from destruction induced by immune cells. Furthermore, growth factors such as those described, can potentially increase migration of melanoblasts (melanocyte precursor cells) from peripheral regions of vitiligo patches or from hair follicles into the vitiligo lesion thus allowing repigmentation.
# as §1
molecule,measurement,setting,value
N[C@@H](Cc1ccc(O)cc1)C(=O)O [L-Tyrosine],melanogenesis in cultured primary melanocytes,[1]; 96 hours (FIG. 10),increased melanogenesis
"N[C@@H](Cc1ccc(O)c(O)c1)C(=O)O [L-dopa, L-DOPA]",melanogenesis compared to untreated melanocytes,[1]; FIG. 6,increased melanogenesis
same,melanogenesis in human melanocytes,"[1]; each agent alone, 96 h (FIG. 4)",melanogenesis increases
bFGF: recombinant human basic fibroblast growth factor (FGF2),proliferation of primary human melanocytes,[2],increases proliferation

# From patent US20150202187A1, “COMPOSITIONS AND METHODS FOR TREATMENT OF VITILIGO” (priority 2012, published 2015)
